This is an account of results in patent US12630565B2, “DNA-dependent protein kinase inhibitor” (DIZAL (JIANGSU) PHARMACEUTICAL CO., LTD., priority 2019, dated 2026).

Data set [1] concerns the target Full length human DNAPK protein (Homo sapiens, UniProt P78527). The experiment in a line: DNA-PK enzymatic assay (TR-FRET). It is filed as biochemical. The conditions noted are these: 10 μM ATP, 1.6 μM peptide substrate.
The test system of a further data set is Rat hepatocyte. The experiment in a line: Metabolic stability assay (rat hepatocyte Clint). It is filed as in vitro ADME. The conditions noted are these: 1 μM compound, cryopreserved hepatocytes 1 million cells per mL. In short, it runs like this: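 Compound at 1 μM incubated with cryopreserved rat hepatocytes, 1 million cells/mL, sampled 0–120 min with acetonitrile quench and LC-MS/MS quantitation. CLint (μL/min/E6) derived from elimination rate constant and half-life of parent disappearance, scaled by cell concentration.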

Data set [2] can be described thus: Metabolic stability assay (human microsomal Clint). The conditions noted are these: 1 mg/mL microsomes, 1 mM NADPH, 37° C.; for microsomal CLint at 1 μM: human, pooled human liver microsomes, pH 7.4, 1 μM compound; for Human liver microsomal CLint: 1 μM compound. It is filed as in vitro ADME. In short, it runs like this: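 Compound (1 μM) incubated at 37 °C with pooled human liver microsomes (1 mg/mL) and 1 mM NADPH in 100 mM phosphate, pH 7.4. Samples quenched in acetonitrile at 0–30 min and analysed by LC-MS/MS for parent loss. CLint reported in μl/min/mg.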

The next data set deals with MDR1, BCRP. As to the kind of experiment: MDCKII-MDR1-BCRP efflux assay. The class given is in vitro ADME. To be noted: dog, pH 7.4, 5 μM compound, HBSS pH 7.4, read-out: MDCK-Mdr1-BCRP efflux ratio. In short, it runs like this: (§1)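 Bidirectional (A-B, B-A) transport of 5 μM compound across MDCKII-MDR1-BCRP monolayers in HBSS, 25 mM HEPES pH 7.4, ~37° C. for 120 min, triplicate; donor and receiver concentrations measured, monolayer integrity checked with Lucifer yellow. Papp and efflux ratio calculated.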

Data set [3] in a line: Brain-blood-barrier penetration assay (short oral absorption model, Kp,uu). It is filed as in vivo. The conditions noted are these: male Han Wistar rats, oral 10 mg/kg in 1% methylcellulose, AUC(brain)/AUC(plasma)×(fu,brain/fu.plasma); for Kp uu: male, Han Wistar, rat, brain and plasma, po, 10 mg/kg. The protocol: It is believed that Kp,uu, the relationship between concentrations of unbound drug in brain and in plasma, is the key to prediction of CNS action and should be the main parameter measured and optimized for in drug discovery (Di L et al., Journal of Medicinal Chemistry [2013], 56: 2-12).
In vitro plasma and brain binding assay was carried out by using equilibrium dialysis method with semi-permeable membrane. Plasma and diluted brain homogenate (1:4 with DPBS pH7.4) were spiked with 5 μM test compound (in triplicate) and dialyzed against equal volume of 150 μL 100 mM PBS buffer (pH7.4) at 37° C. for 18 hours in a slowly rotated plate. At the end of incubation, a 50 μL aliquot from the receiver side and a 5 μL from the donor chamber were taken. The 5 μL sample was further diluted with 45 μL of blank plasma or brain homogenate. Paired samples were matrix-matched with either buffer or blank plasma/brain homogenate and mixed for 2 min, and then precipitated with 150 μL cold acetonitrile with 100 ng/mL tolbutamide as internal standard. After centrifuging at 4000 rpm for 20 min, supernatant was diluted with 0.1% formic acid aqueous solution and analyzed for LC/MS/MS (API 4000, Applied Biosystems, Foster City). Unbound fraction (fu) of test compound in the brain homogenate and diluted plasma were calculated by the ratio of the buffer side response to the brain homogenate/plasma side response, and unbound fraction (fu,pl and fu,br) of test compound in non-diluted plasma and tissue were calculated from measured fu in homogenate and plasma with the following equation: fu,bl (fu,br)=(1/D)/[(1/fu−1)+1/D)]. D is dilution factor.
A Short oral absorption (SOA) model is an in-vivo screening model to identify brain penetration of a compound. Six male Han Wistar rats purchased from Beijing Vital River were orally dosed with the compound at 10 mg/kg in 1% methylcellulose At 0.5, 1, 2, 4, 7 and 16 hour post-dose, cerebral spinal fluid (CSF) was collected from cisterna magna. Plasma samples will be processed for plasma by centrifugation at approximately 4° C., 3,000 g within half an hour of collection. Plasma samples will be removed to a labeled tube and stored at −80 degree until analysis. Brain tissue was harvested and homogenized in 3× volume of 100 mM phosphate buffered saline (pH7.4). All samples were stored at ˜−70° C. prior to LC/MS/MS analysis.
Standards were prepared by spiking blank plasma, brain homogenate and artificial CSF covering 0.5 to 500 ng/mL. Homogenized brain tissue along with plasma samples were precipitated by adding 3-fold volume of cold acetonitrile containing internal standard (40 ng/mL Dexamethasone and 40 ng/mL Diclofenac), and 10 μL of CSF samples were precipitated with 100 μL of cold acetonitrile containing internal standard. After 2 min vortex and 5 min centrifugation at 14,000 rpm, supernatant was analyzed by LC/MS/MS (API 4000, Applied Biosystems, Foster City). Two sets of standard curves were run at the beginning and end of each batch from plasma sample analysis. For brain and CSF samples, one standard curve was analyzed along with test samples.
Total brain levels, expressed as brain/plasma ratio (Kp) were measured by AUCbrain/AUCplasma in rodents after oral administration. Free fraction of test compound in biological matrix was determined by in vitro plasma and brain binding assay. Kp,uu was calculated by the following equation: Kp,uu=AUC (brain)/AUC (plasma)×(fu,brain/fu.plasma).

Data set [4] deals with MDCKII-MDR1-BCRP cell monolayers. As to the kind of experiment: MDCKII-MDR1-BCRP efflux assay. The class given is in vitro ADME. To be noted: 5 μM compound, 120 min, HBSS pH 7.4. In short, it runs like this: as §1

The term IC50 denotes the point on the concentration scale where inhibition reaches its midpoint. Usually microsomal CLint stands for a measure of how fast metabolising enzymes remove a compound, apart from limits set by blood flow. Read a low microsomal CLint as slow turnover. The compound `Cc1cc2ncnn2cc1Nc1ncc2c(C)nn([C@H]3C[C@H]4CC[C@@H](C3)O4)c2n1` [Example 106, 1-((1R,3r,5S)-8-oxabicyclo[3.2.1]octan-3-yl)-3-methyl-N-(7-methyl-[1,2,4]triazolo[1,5-a]pyridin-6-yl)-1H-pyrazolo[3,4-d]pyrimidin-6-amine] registered a half-maximal inhibitory concentration (IC50) in data set [1] of 0.9 nM. In the data set on Rat hepatocyte, the “Rat hepatocyte CLint (μl/min/10^−6 cells)” value (“Rat hepatocyte CLint” for short) came to 17.6 μl/min/10^−6 cells. Moreover, the intrinsic clearance (microsomal CLint) at 1 μM in data set [2] came out at 68.9 µL/min/mg. Also, in the data set on MDR1, BCRP, the efflux ratio at 120 min, 5 μM was 2.1. In data set [3], this compound returned a Kp uu of 0.19.
In the same order, the values of `Cc1cc2ncnn2cc1Nc1ncc2c(n1)c(C1CCOCC1)nn2C` [Example 1, 1-methyl-N-(7-methyl-[1,2,4]triazolo[1,5-a]pyridin-6-yl)-3-(tetrahydro-2H-pyran-4-yl)-1H-pyrazolo[4,3-d]pyrimidin-5-amine] are 0.8 nM, 5.4 μl/min/10^−6 cells, 19.8 µL/min/mg, 5.9 and 0.17.
On the same counts, the results for `Cc1cc2ncnn2cc1Nc1ncc2c(C)nn(C3CCC(F)(F)CC3)c2n1` [Example 21, 1-(4,4-difluorocyclohexyl)-3-methyl-N-(7-methyl-[1,2,4]triazolo[1,5-a]pyridin-6-yl)-1H-pyrazolo[3,4-d]pyrimidin-6-amine] are 1.4 nM, 10.0 μl/min/10^−6 cells, 102 µL/min/mg, 1.3 and 0.08.
In data set [1], `COC1CCC(n2nc(C)c3cnc(Nc4cn5ncnc5cc4C)nc32)C1` (single isomer, unassigned) [Example 110, 1-(3-methoxycyclopentyl)-3-methyl-N-(7-methyl-[1,2,4]triazolo[1,5-a]pyridin-6-yl)-1H-pyrazolo[3,4-d]pyrimidin-6-amine] had an IC50 of 1.8 nM. In addition, in the data set with Rat hepatocyte, the “Rat hepatocyte CLint” value was 17.4 μl/min/10^−6 cells. The “Human liver microsomal CLint” value in data set [2] is 64.8 µL/min/mg. The MDCK-Mdr1-BCRP efflux ratio in data set [4] is reported as 1.7. In addition, in data set [3], the Kp uu turned out to be 0.25.
On to `CO[C@H]1CC[C@H](c2nn(C)c3cnc(Nc4cn5ncnc5cc4C)nc32)CC1` [Example 7, 3-((1r,4r)-4-methoxycyclohexyl)-1-methyl-N-(7-methyl-[1,2,4]triazolo[1,5-a]pyridin-6-yl)-1H-pyrazolo[4,3-d]pyrimidin-5-amine], for which, in data set [1], the half-inhibitory concentration (IC50) stood at 0.8 nM. In the data set with Rat hepatocyte, the “Rat hepatocyte CLint” value is 7.5 μl/min/10^−6 cells. The same compound gave a microsomal CLint at 1 μM in data set [2] of 75.1 µL/min/mg. In the data set on MDR1, BCRP, the efflux ratio at 120 min, 5 μM amounted to 2.3. This compound also showed a Kp uu in data set [3] of 0.1.
Regarding `CO[C@H]1CC[C@H](n2nc(C)c3cnc(Nc4cn5ncnc5cc4C)nc32)CC1` [Example 24, 1-((1r,4r)-4-methoxycyclohexyl)-3-methyl-N-(7-methyl-[1,2,4]triazolo[1,5-a]pyridin-6-yl)-1H-pyrazolo[3,4-d]pyrimidin-6-amine], in data set [1], the IC50 was found to be 0.4 nM. Moreover, the “Rat hepatocyte CLint” value in the data set with Rat hepatocyte is 5.5 μl/min/10^−6 cells. For the same compound, the microsomal CLint at 1 μM in data set [2] turned out to be 72.3 µL/min/mg. The efflux ratio at 120 min, 5 μM in the data set on MDR1, BCRP is 1.4. In data set [3], this compound displayed a Kp uu of 0.1.
In the same order, the values of `Cc1cc2nccn2cc1Nc1ncc2c(n1)c(C1CCOCC1)nn2C` [Example 2, 1-methyl-N-(7-methylimidazo[1,2-a]pyridin-6-yl)-3-(tetrahydro-2H-pyran-4-yl)-1H-pyrazolo[4,3-d]pyrimidin-5-amine] are 1.4 nM, 3.0 μl/min/10^−6 cells, 12.7 µL/min/mg, 3.3 and 0.14.
On the same counts, the results for `Cc1cc2ncnn2cc1Nc1ncc2c(C)nn([C@@H]3C[C@H]4CC[C@@H](C3)O4)c2n1` [Example 107, 1-((1R,3s,5S)-8-oxabicyclo[3.2.1]octan-3-yl)-3-methyl-N-(7-methyl-[1,2,4]triazolo[1,5-a]pyridin-6-yl)-1H-pyrazolo[3,4-d]pyrimidin-6-amine] are 1.3 nM, 4.5 μl/min/10^−6 cells, 13.9 µL/min/mg, 2.7 and 0.3.
`COC1CCC(n2nc(C)c3cnc(Nc4cn5ncnc5cc4C)nc32)C1` (single isomer, unassigned) [Example 111, 1-(3-methoxycyclopentyl)-3-methyl-N-(7-methyl-[1,2,4]triazolo[1,5-a]pyridin-6-yl)-1H-pyrazolo[3,4-d]pyrimidin-6-amine] yielded a 50% inhibitory concentration (IC50) in data set [1] of 1.1 nM. Moreover, the “Rat hepatocyte CLint” value in the data set with Rat hepatocyte is given as 17.0 μl/min/10^−6 cells. Also, the “Human liver microsomal CLint” value in data set [2] came to 68.5 µL/min/mg. Besides, the MDCK-Mdr1-BCRP efflux ratio in data set [4] is recorded as 1.8. Moreover, the “Kp, uu (brain)” value in data set [3] is 0.36.
As for `Cc1cc2ncnn2cc1Nc1ncc2c(C)nn(C3CCCOCC3)c2n1` (single isomer, unassigned) [Example 34, 3-methyl-N-(7-methyl-[1,2,4]triazolo[1,5-a]pyridin-6-yl)-1-(oxepan-4-yl)-1H-pyrazolo[3,4-d]pyrimidin-6-amine], the concentration for half-maximal inhibition (IC50) in data set [1] was found to be 1.2 nM. Also, the “Rat hepatocyte CLint” value with Rat hepatocyte was determined as 12.7 μl/min/10^−6 cells. Moreover, in data set [2], the “Human liver microsomal CLint” value came to 31.4 µL/min/mg. Moreover, in data set [4], the MDCK-Mdr1-BCRP efflux ratio is given as 3.5. Further, in data set [3], the Kp uu is 0.24.
The compound `Cc1cc2ncnn2cc1Nc1ncc2c(C)nn(C3CCOCC3C)c2n1` (single isomer, unassigned) [Example 113, 3-methyl-N-(7-methyl-[1,2,4]triazolo[1,5-a]pyridin-6-yl)-1-(3-methyltetrahydro-2H-pyran-4-yl)-1H-pyrazolo[3,4-d]pyrimidin-6-amine] displayed a 50% inhibitory concentration (IC50) in data set [1] of 3.2 nM. Besides, the “Rat hepatocyte CLint” value in the data set with Rat hepatocyte is given as 8.2 μl/min/10^−6 cells. Besides, the “Human liver microsomal CLint” value in data set [2] was 60.5 µL/min/mg. Also, the MDCK-Mdr1-BCRP efflux ratio in data set [4] came out at 4.
In turn, `Cc1cc2ncnn2cc1Nc1ncc2c(C)nn(C3CCOC(C)(C)C3)c2n1` (single isomer, unassigned) [Example 117, 1-(2,2-dimethyltetrahydro-2H-pyran-4-yl)-3-methyl-N-(7-methyl-[1,2,4]triazolo[1,5-a]pyridin-6-yl)-1H-pyrazolo[3,4-d]pyrimidin-6-amine] came in with a half-inhibitory concentration (IC50) in data set [1] of 1.8 nM. In the data set with Rat hepatocyte, the “Rat hepatocyte CLint” value is given as 9.1 μl/min/10^−6 cells. Besides, in data set [2], the “Human liver microsomal CLint” value stood at 50.4 µL/min/mg. Besides, the MDCK-Mdr1-BCRP efflux ratio in data set [4] turned out to be 1.8.
